# Experiments:
# [1] = tested on: blood lymphoid cells and immune organs after irradiation; experiment: Effect on immune system of irradiated guinea pigs; assay type: in vivo
# Description: Twenty-two male guinea pigs were used in the following test.
# Guinea pigs were exposed to irradiation in a total. does 1Gy.target-skin distance—70 cm; time of exposure—2′48″ Device: 180 kV; 15 mA; filter 0.5 Cu Treatment: i.m. single daily 1 microg. HM897 per kg for 5 days.
# Treatment of controls: normal saline 0.5 ml i.m. single daily for 5 days.
# Leukocyte and lymphocyte levels were measured in peripheral blood on the 7th, 14th, 21st, 36th and 44th day after irradiation.
# In a second test 40 male guinea pigs were used, and the same regimen was followed.
# There were two controls—irradiated and non-irradiated. Parameters were evaluated on the 8th and 21st days after irradiation. Tested parameters: clinical blood examination, non-specific resistance by lysosomal cationic test; “active” T-lymphocytes and total T-lymphocytes (E-RFC), B-lymphocytes (EAC-RFC) were measured in blood, thymus, lymph nodes, spleen and red bone marrow. Blood lymphocyte functional activity was evaluated by leukocyte migration inhibition (LMI) with ConA. Histological examinations of thymus, spleen, lymph nodes, bone marrow and adrenals were carried out.
# [2] = tested on: lymphoid cells differentiation; experiment: Effects in thymectomized guinea pigs; assay type: in vivo; conditions: thymectomized animals; 1 microg per kg i.m. daily for 10 days; 15th day
# Description: Model: Thymectomy (removal of thymus): 30 mongrel male guinea pigs. Treatment: i.m. single daily 1 microg HM897 per kg for 10 days. Treatment of controls: normal saline 0.5 ml i.m. single daily for 10 days (there were two controls—thymectomized and sham-operated). Parameters were determined on the 15th day after onset of the treatment. Tested parameters: clinical blood examination, “active” T-lymphocytes and total T-lymphocytes (E-RFC), B-lymphocytes (EAC-RFC) were measured in blood, thymus, lymph nodes, spleen and red bone marrow.
# [3] = tested on: trypsinized thymocytes; experiment: Restoration of rosette-forming capacity (E-RFC) of trypsinized thymocytes; assay type: cell-based, guinea-pig; conditions: concentration 10 microg/ml (most active of 1, 10, 100)
# Description: Model: A. This work was designed to study the restoration of superficial receptors on lymphocytes after proteolytic digestion or after severe secondary immunodeficiency. Thymocytes obtained from guinea-pig were trypsinized and then their rosette-forming capacity with rabbit erythrocytes (E-RFC) was evaluated. The cells were incubated with the peptide in concentrations 1, 10 and 100 microg/ml. There were two controls—intact thymocytes (not trypsinized) and trypsinized thymocytes not incubated with the peptide.
# [4] = tested on: B-lymphocytes; experiment: Ig-receptor expression on B-lymphocytes of patients with secondary immunodeficiency; assay type: cell-based, human; conditions: concentration 1 microg/ml
# Description: The number of cells carrying Ig-receptors before and after incubation with the peptide has been measured (by means for FITC-labelled sera against human Ig).
# [5] = tested on: posthemorrhagic anemia; experiment: Erythropoietic effect in posthemorrhagic anemia; assay type: in vivo, mice
# Description: This test was designed to study posthemorrhagic anemia (acute blood loss caused by taking blood from retroorbital sinus), and hemolytic anemia induced by phenylhydrazine hydrochloride (120 mg active ingredients/kg 30 Balb/c-mice and 30 CBA-mice). HM897 was injected intraperitoneally in doses of 100 and 150 microg per kg, 3 hours and 1 day after intervention modelling anemia, for 5 days. Tester parameters: RBC, leukocytes, reticulocytes, Hb, Hct
substance,measurement,setting,value
Thr-Ala-Glu-Glu-Lys (TAEEK) [HM897],leukocyte and lymphocyte levels in peripheral blood,"[1]; irradiation 1 Gy, 1 microg per kg i.m. daily for 5 days, days 7-44",restoration of leukocyte and lymphocyte levels
same,peripheral blood lymphocytes and neutrophil functional activity,"[1]; second test, irradiated animals",restored peripheral blood lymphocytes and neutrophil functional activity
same,T-lymphocyte maturation and migration,"[1]; second test, irradiated animals, early terms of observation",accelerates T-lymphocyte maturation and their migration to peripheral immune organs
same,proliferation and differentiation in organs of the immune system,"[1]; second test, irradiated animals, later stage of the study",enhancement of proliferation and differentiation in both central and peripheral organs of the immune system
same,lymphoid cells differentiation,[2],does not stimulate lymphoid cells differentiation
same,biological activity (percentage of rosette-forming capacity restoration),[3],78/9
same,cells carrying Ig-receptors of different types,[4],significant increase
same,Hb level and plasma/formed elements ratio restoration,[5],more rapid
same,most effective dose,[5]; doses 100 and 150 i.p.,0.15 mg/kg
same,RBC count,[5]; on the 6th day after administration,7.1 mln/ml

# From patent US6346514B1, “Pharmaceutical lysine-containing polypeptide compositions and methods of use thereof” (priority 1991, dated 2002)
